The nature of this series: Linear voltammetry of substrate and product solutions on screen-printed carbon sensors. The class given is physicochemical. To be noted: linear voltammetry v=50 mV·s^−1; 5×10^−4 M in PBS (pH 7.5)—0.2% DMSO; vs. Ag/AgCl. As to the method:
FIG. 2 represents the linear voltammograms (v=50 mV·s^−1) of a solution of substrate (p-AP-OG; S) and of product (p-AP-G; dashed curve; P) at 5×10^−4 M in PBS (pH 7.5)—0.2% DMSO.
The electrochemical measurements were carried out by linear voltammetry (v=50 mV·s^−1) with a 910 PSTAT mini potentiostat (Metrohm, France) powered through the USB connection of the computer and controlled by the PSTAT software (version 1.0). To do this, drops of solution of 30-50 μl were deposited on the surface of single-use screen-printed carbon sensors supplied by Dropsens (DRP-110) and connected to the potentiostat via the connector (DRP-DSC). The amperometric detection of the product generated during the reaction catalyzed by Ag85 was always carried out after a step of filtration of the reaction mixture with a filtration device (Microcon 10 kDa, Millipore). All the potentials are measured relative to the Ag/AgCl reference electrode.

As for `Nc1ccc(O[C@@H]2O[C@H](CO)[C@@H](O)[C@H](O)[C@H]2O)cc1` [p-AP-G, p-aminophenyl-β-D-glucopyranoside], the oxidation peak potential result was “~+0.4 V”. As to `CCCCCCCC(=O)OC[C@H]1O[C@@H](Oc2ccc(N)cc2)[C@H](O)[C@@H](O)[C@@H]1O` [p-AP-OG, p-aminophenyl-6-O-octanoyl-β-D-glucopyranoside], the oxidation peak potential entry is listed as “~+0.2 V”.

The record behind these values is patent publication US11293045B2, “Method for electrochemical detection of mycobacteria” (UNIVERSITÉ DE BOURGOGNE, priority 2017, dated 2022).
